Values of other authors, collected in US11744998B2, “Drug delivery devices with drug-permeable component and methods” (TARIS Biomedical LLC, priority 2015, dated 2023).
Where a name gives a salt, the structure may show the parent alone.

Conditions: water at 37° C.

| Structure (SMILES) | approximate solubility [mg/mL] |
| --- | --- |
| Nc1ccn([C@@H]2O[C@H](CO)[C@@H](O)C2(F)F)c(=O)n1 [gemcitabine HCl] | ~80 |
| Nc1ccn([C@@H]2O[C@H](CO)[C@@H](O)C2(F)F)c(=O)n1 [gemcitabine base] | ~15 |
| Cc1ccc(O)c([C@H](CCN(C(C)C)C(C)C)c2ccccc2)c1 [tolterodine tartrate] | ~12 |
| O=C(O[C@H]1C[C@H]2CC[C@@H](C1)[N+]21CCCC1)C(O)(c1ccccc1)c1ccccc1 [trospium chloride] | ~500 |
